# Measurements from article PMC9934367, “Functional impact of subunit composition and compensation on Drosophila melanogaster nicotinic receptors–targets of neonicotinoids” (PLOS Genetics, 2023).
# Tested on: D. melanogaster nAChRs
# Experiment: Comparison of agonist activity between nAChRs expressed in X. laevis oocytes (one-way ANOVA, Kruskal-Wallis);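 on Difference of Imax values: Imax relative to maximal plateau response to ACh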
# Type: cell-based
# Summary of the method: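 D. melanogaster nAChR subunits and co-factors expressed in X. laevis oocytes by cRNA injection, recorded after 3–4 days by two-electrode voltage clamp at −100 mV in saline with 0.5 μM atropine. Peak currents fitted to a Hill equation for EC50; pEC50 differences tested by one-way ANOVA or Kruskal-Wallis.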
# [1] = Dα1/Dα2/Dα3/Dβ1 vs. Dα1/Dα2/Dα3/Dβ1/Dβ2
# [2] = Dα1/Dα2/Dα3/Dβ1 vs. Dα1/Dα2/Dβ1/Dβ2
# [3] = Dα1/Dα2/Dα3/Dβ1 vs. Dα1/Dα3/Dβ1/Dβ2
# [4] = Dα1/Dα2/Dα3/Dβ1 vs. Dα1/Dβ1/Dβ2
# [5] = Dα1/Dα2/Dα3/Dβ1 vs. Dα2/Dα3/Dβ1/Dβ2
# [6] = Dα1/Dα2/Dα3/Dβ1 vs. Dα3/Dβ1/Dβ2
# [7] = Dα1/Dα2/Dβ1/Dβ2 vs. Dα1/Dα2/Dα3/Dβ1/Dβ2
# [8] = Dα1/Dα2/Dβ1/Dβ2 vs. Dα2/Dα3/Dβ1/Dβ2
# [9] = Dα1/Dα2/Dβ1 vs. Dα1/Dα2/Dα3/Dβ1
# [10] = Dα1/Dα2/Dβ1 vs. Dα1/Dα2/Dα3/Dβ1/Dβ2
# [11] = Dα1/Dα2/Dβ1 vs. Dα1/Dα2/Dβ1/Dβ2
# [12] = Dα1/Dα2/Dβ1 vs. Dα1/Dα3/Dβ1/Dβ2
# [13] = Dα1/Dα2/Dβ1 vs. Dα2/Dα3/Dβ1/Dβ2
# [14] = Dα1/Dα3/Dβ1/Dβ2 vs. Dα1/Dα2/Dα3/Dβ1/Dβ2
# [15] = Dα1/Dα3/Dβ1/Dβ2 vs. Dα1/Dα2/Dβ1/Dβ2
# [16] = Dα1/Dα3/Dβ1/Dβ2 vs. Dα2/Dα3/Dβ1/Dβ2
# [17] = Dα1/Dα3/Dβ1 vs. Dα1/Dα2/Dα3/Dβ1
# [18] = Dα1/Dα3/Dβ1 vs. Dα1/Dα2/Dα3/Dβ1/Dβ2
# [19] = Dα1/Dα3/Dβ1 vs. Dα1/Dα2/Dβ1/Dβ2
# [20] = Dα1/Dα3/Dβ1 vs. Dα1/Dα3/Dβ1/Dβ2
# [21] = Dα1/Dα3/Dβ1 vs. Dα2/Dα3/Dβ1/Dβ2
# [22] = Dα1/Dβ1/Dβ2 vs. Dα1/Dα2/Dα3/Dβ1/Dβ2
# [23] = Dα1/Dβ1/Dβ2 vs. Dα1/Dα2/Dβ1/Dβ2
# [24] = Dα1/Dβ1/Dβ2 vs. Dα1/Dα3/Dβ1/Dβ2
structure (smiles),measurement,setting,value
"N#C/N=C1\SCCN1Cc1ccc(Cl)nc1 [Thiacloprid, thiacloprid]","Difference of pEC50 values, nAChRs compared",Dα1/Dα2/Dα3/Dβ1/Dβ2 vs. Dα1/Dα2/Dα4/Dβ1/Dβ2,0.17
same,"Difference of pEC50 values, nAChRs compared",Dα1/Dα2/Dα3/Dβ1/Dβ2 vs. Dα1/Dα2/Dβ1/Dβ2/Dβ3,-0.53
same,"Difference of pEC50 values, nAChRs compared",Dα1/Dα2/Dα3/Dβ1/Dβ2 vs. Dα1/Dα3/Dα4/Dβ1/Dβ2,-0.78
same,"Difference of pEC50 values, nAChRs compared",Dα1/Dα2/Dα3/Dβ1/Dβ2 vs. Dα1/Dα3/Dβ1/Dβ2/Dβ3,-1.45
same,"Difference of pEC50 values, nAChRs compared",Dα1/Dα2/Dα3/Dβ1/Dβ2 vs. Dα2/Dα3/Dα4/Dβ1/Dβ2,-0.81
same,"Difference of pEC50 values, nAChRs compared",Dα1/Dα2/Dα3/Dβ1/Dβ2 vs. Dα2/Dα3/Dβ1/Dβ2/Dβ3,-1.13
same,Difference of Imax values,[1],-0.012
same,Difference of pEC50 values,[1],0.55
same,Difference of Imax values,[2],-0.027
same,Difference of pEC50 values,[2],0.63
same,Difference of Imax values,[3],-0.060
same,Difference of pEC50 values,[3],-0.27
same,Difference of Imax values,[4],0.004
same,Difference of pEC50 values,[4],-0.13
same,Difference of Imax values,[5],0.030
same,Difference of pEC50 values,[5],-0.35
same,Difference of Imax values,[6],0.025
same,Difference of pEC50 values,[6],-0.59
same,Difference of Imax values,[7],0.015
same,Difference of pEC50 values,[7],-0.08
same,Difference of Imax values,[8],0.057
same,Difference of pEC50 values,[8],-0.98
same,Difference of Imax values,[9],-0.022
same,Difference of pEC50 values,[9],-0.81
same,Difference of Imax values,[10],-0.034
same,Difference of pEC50 values,[10],-0.26
same,Difference of Imax values,[11],-0.049
same,Difference of pEC50 values,[11],-0.18
same,Difference of Imax values,[12],-0.082
same,Difference of pEC50 values,[12],-1.08
same,Difference of Imax values,Dα1/Dα2/Dβ1 vs. Dα1/Dβ1/Dβ2,-0.018
same,Difference of pEC50 values,Dα1/Dα2/Dβ1 vs. Dα1/Dβ1/Dβ2,-0.94
same,Difference of Imax values,Dα1/Dα2/Dβ1 vs. Dα2/Dα3/Dβ1,-0.020
same,Difference of pEC50 values,Dα1/Dα2/Dβ1 vs. Dα2/Dα3/Dβ1,0.00
same,Difference of Imax values,[13],0.008
same,Difference of pEC50 values,[13],-1.16
same,Difference of Imax values,Dα1/Dα2/Dβ1 vs. Dα3/Dβ1/Dβ2,0.003
same,Difference of pEC50 values,Dα1/Dα2/Dβ1 vs. Dα3/Dβ1/Dβ2,-1.40
same,Difference of Imax values,[14],0.048
same,Difference of pEC50 values,[14],0.82
same,Difference of Imax values,[15],0.033
same,Difference of pEC50 values,[15],0.90
same,Difference of Imax values,[16],0.090
same,Difference of pEC50 values,[16],-0.08
same,Difference of Imax values,[17],0.000
same,Difference of pEC50 values,[17],0.34
same,Difference of Imax values,[18],-0.012
same,Difference of pEC50 values,[18],0.89
same,Difference of Imax values,Dα1/Dα3/Dβ1 vs. Dα1/Dα2/Dβ1,0.022
same,Difference of pEC50 values,Dα1/Dα3/Dβ1 vs. Dα1/Dα2/Dβ1,1.15
same,Difference of Imax values,[19],-0.027
same,Difference of pEC50 values,[19],0.97
same,Difference of Imax values,[20],-0.060
same,Difference of pEC50 values,[20],0.07
same,Difference of Imax values,Dα1/Dα3/Dβ1 vs. Dα1/Dβ1/Dβ2,0.004
same,Difference of pEC50 values,Dα1/Dα3/Dβ1 vs. Dα1/Dβ1/Dβ2,0.21
same,Difference of Imax values,Dα1/Dα3/Dβ1 vs. Dα2/Dα3/Dβ1,0.002
same,Difference of pEC50 values,Dα1/Dα3/Dβ1 vs. Dα2/Dα3/Dβ1,1.15
same,Difference of Imax values,[21],0.030
same,Difference of pEC50 values,[21],-0.01
same,Difference of Imax values,Dα1/Dα3/Dβ1 vs. Dα3/Dβ1/Dβ2,0.025
same,Difference of pEC50 values,Dα1/Dα3/Dβ1 vs. Dα3/Dβ1/Dβ2,-0.25
same,Difference of Imax values,[22],-0.016
same,Difference of pEC50 values,[22],0.68
same,Difference of Imax values,[23],-0.031
same,Difference of pEC50 values,[23],0.76
same,Difference of Imax values,[24],-0.064
same,Difference of pEC50 values,[24],-0.14
same,Difference of Imax values,Dα1/Dβ1/Dβ2 vs. Dα2/Dα3/Dβ1/Dβ2,0.026
